Series [1] is described as follows: in vitro. It counts as cell-based. The note with it: human, HepG2.2.15 cells. The method, then: The concentration of HBV DNA in the HepG2.2.15 cell supernatant was detected through the real-time fluorescence quantitative PCR (qPCR) method to determine the anti-HBV activity of the compound in the HepG2.2.15 cells, and the effect of the testing compounds to the HepG2.2.15 cell activity was detected through Cell-titer Blue.
(§1) 8.1. Dilution of the compounds: the initial concentration of each compound in the in vitro anti-HBV activity test was 1 μM, with 3-fold serial dilution to 8 concentrations; the initial concentration of each compound in the cytotoxicity test was 100 μM, with 3-fold serial dilution to 8 concentrations; DMSO was used for the dilution of the compound mother liquor. The initial concentrations of the reference compound TDF for the anti-HBV activity test in vitro and the cytotoxicity test were all set at 0.2 μM, with 3-fold serial dilution to 8 concentrations.
8.3. Treatment of the cells in the cell viability test: the HepG2.2.15 cells were plated in the 96-well plate (4×10^4 cells/well), and cultured overnight at 37° C. in 5% CO2. On 2nd day, fresh culture solutions containing compounds of different concentrations were added to the culture wells. See Table 3 for the compound distribution. On 5th day, the used culture solutions in the culture wells were sucked and discarded, and fresh culture solutions containing compounds of different concentrations were added. On 8th day, Cell-titer Blue agent was added to each well, and the microplate reader was used to detect the fluorescence value of each well.
The cell viability percentage was calculated using the following formula: % cell viability=(fluorescence of sample−fluorescence of medium control)/(fluorescence of DMSO control−fluorescence of medium control)[…] 100%
(§2) 9.2 Test method: the test was carried out according to the procedure in example 1.

Series [2] in a line: Stability in the human blood. It counts as in vitro ADME. The note with it: 2 μM. The method, then: (§3) The following stability test were carried out according to the prior art, and the data of the stability test shown in the table were the residue percentages after the test compounds were incubated for different period of time under the test condition.
Series [3] deals with HBV. Kind of series: Cell based anti-HBV activity test, HBV DNA in HepG2.2.15 cell supernatant by qPCR. The note with it: read-out: EC50. As to the method:
as §1
8.2. Anti-HBV activity test in vitro: the HepG2.2.15 cells were plated in the 96-well plate (4×10^4 cells/well), and cultured overnight at 37° C. in 5% CO2. On second day, fresh culture solutions containing compounds of different concentrations were added to the culture wells. See Table 2 for the compound distribution. On 5th day, the used culture solutions in the culture wells were sucked and discarded, and fresh culture solutions containing compounds of different concentrations were added. On 8th day, the supernatant in the culture wells was collected for the extraction of HBV DNA in the supernatant. qPCR test was used to detect the concentration of HBV DNA content in the HepG2.2.15 supernatant.
8.4. Data analysis and calculation of the inhibition percentage and relative cell viability: The inhibition percentage was calculated using the following formula: % Inh.=[(HBV quantity of DMSO control−HBV quantity of sample)/HBV quantity of DMSO control]×100%
9.1 Drugs: the dilution method and concentrations of compound 3, the reference compound (CN201380030061.6, and the compound shown in claim 36 (abbreviation: compound 7), and the isomer thereof) were the same as those in example 1.
as §2
In general terms: In qPCR the cycle at which signal appears reflects the starting amount.

Series [4] in a line: Stability in the simulated intestinal fluid. It counts as in vitro ADME. The conditions noted are these: 10 μM. As to the method:
as §3

The nature of series [5]: in vivo. Set-up: species or system ICR mice. The note with it: mouse, 50 mg/kg. The method, then:
12 ICR mice (male, body weight 30±5 g, purchased from the Vital River animal center) were randomly divided into 4 groups, 3 for each group, fasted for 12 h before drug administration, with freely drinking during the fasting. […] The dose of the Tenofovir prodrug was 50 mg/kg, and the administration quantity was 10 mL/kg. The sample collection protocols: after administration by gastric gavage, each 0.5 mL of blood was taken from the orbit at 15 min, 30 min, 1 h, and 3 h; the mice were sacrificed, and the liver tissues were taken, washed cleanly, and weighed; normal saline was added to the liver with a proportion of 1:1, homogenized, and stored in the refrigerator at −40° C. for test. Treatment method for the plasma samples: 100 μL of the mouse plasma was taken and placed in a 1.5 mL plastic EP tube, 100 μL solution of internal standard (200 ng/ml theophylline) solution was added, 600 μL acetonitrile was added, vortex shaking for 2 min, centrifuged for 3 min (12500 rpm), the supernatant was taken, purged with nitrogen to dryness, and dissolved again with 100 μL of mobile phase (water:methanol=95:5), and the injection volume was 10 μL. Treatment method for the tissue samples: 200 μL of the mouse tissue samples were taken and placed in a 1.5 mL plastic EP tube, 100 μL solution of internal standard (200 ng/ml theophylline) solution was added, 600 μL acetonitrile was added, vortex shaking for 2 min, centrifuged for 3 min (12500 rpm), the supernatant was taken, purged with nitrogen to dryness, and dissolved again with 100 μL of mobile phase (water:methanol=95:5), and the injection volume was 20μL.

Series [6] can be described thus: Stability in the human liver S9. In kind it is in vitro ADME. As to the method:
as §3

The nature of series [7]: Stability in the simulated gastric fluid. In kind it is in vitro ADME. The conditions noted are these: 20 μM. As to the method: as §3
Setting [8] is: Cell-titer Blue on 8th day, Table 3.
The mark [9] stands for this setting: Hepatitis B virus, HepG2.2.15, HepG2.2.15 cells, HBV DNA in supernatant on 8th day, Table 3.
The mark [10] stands for this setting: HepG2.2.15 cells, HBV DNA in supernatant on 8th day, Table 3.

Read-outs that look alike come from different tables or passages of the source.

As a reminder, the CC50 is the concentration that lowers cell viability or growth by half. Higher therefore signals better tolerance by the cells. On to `C[C@H](Cn1cnc2c(N)ncnc21)OC[P@@](=O)(NCC(=O)OCc1ccccc1)OCc1ccccc1` (single isomer, unassigned) [Compound 5b], for which, in series [1] (setting [8]), the CC50 was greater than 100000 nM.

On to `CC1CC(OC(=O)C(O)c2ccccc2)CC(C)(C)N1C` (centres unmarked) [Eucatropine], for which, in series [2] (0 min), the “% 0 min (residue percentage)” value came out at 100%. Further, the “% 10 min (residue percentage)” value in series [2] (10 min) is listed as 54.4%. In addition, the “% 30 min (residue percentage)” value in series [2] (30 min) is on record as 37.0%. Moreover, the “% 60 min (residue percentage)” value in series [2] (60 min) is recorded as 24.4%. Moreover, in series [2] (120 min), the “% 120 min (residue percentage)” value is 10.2%.

What is called EC50 is the concentration needed to bring the measured effect to its halfway point. `Cc1ccccc1CO[P@](=O)(CO[C@H](C)Cn1cnc2c(N)ncnc21)N[C@@H](C)C(=O)OC(C)C` [Compound 7a]: the EC50 in series [3] (Hepatitis B virus, HepG2.2.15, HepG2.2.15 cells, comparative test, Table 4) was greater than 1000 nM. Also, the CC50 in series [1] (comparative test, Table 4) was greater than 100000 nM.

Turning to `COC(=O)CN[P@](=O)(CO[C@H](C)Cn1cnc2c(N)ncnc21)OCc1ccccc1` [Compound 2b], in series [3] (setting [9]), the EC50 is greater than 1000 nM. In series [1] (setting [8]), the CC50 was greater than 100000 nM.

`CC(C)OC(=O)CN[P@@](=O)(CO[C@H](C)Cn1cnc2c(N)ncnc21)OCc1ccccc1` (single isomer, unassigned) [Compound 1a]: the EC50 in series [3] (setting [9]) is greater than 1000 nM. This compound showed a half-maximal cytotoxic concentration (CC50) in series [1] (setting [8]) greater than 100000 nM.

For the compound `O=C(O)CCCc1ccc(N(CCCl)CCCl)cc1` [Chlorambucil], the “% 0 min (residue percentage)” value in series [4] (0 min) was 100%. Also, the “% 60 min (residue percentage)” value in series [4] (60 min) was 29.36%. In addition, the “% 120 min (residue percentage)” value in series [4] (120 min) is reported as 3.11%. Further, in series [4] (360 min), the “% 360 min (residue percentage)” value is given as 0.00%. The “% 1440 min (residue percentage)” value in series [4] (1440 min) is recorded as 0.00%.

Take `C[C@H](Cn1cnc2c(N)ncnc21)OCP(=O)(O)O` [TFV, Tenofovir]: in series [5], the Cliver tissue was found to be 67.251 nmol/mL, the Cplasma came to 0.075 nmol/mL and the “Liver tissue selectivity (Cliver tissue/Cplasma)” value came out at 896.

The term half-life denotes how long it takes for the measured level to halve. For `O=c1ccc2ccc(O)cc2o1` [7-Hydroxycoumarin], in series [6] (human liver S9, 1 μM), the “Remaining (T = 60 min)” value was found to be 4%. Also, the half-life in series [6] (human, s9) came to 6.6 min.

For `COC(=O)CN[P@@](=O)(CO[C@H](C)Cn1cnc2c(N)ncnc21)OCc1ccccc1` [Compound 2a], in series [1] (setting [8]), the half-maximal cytotoxic concentration (CC50) was greater than 100000 nM.

For `CC(C)OC(=O)[C@H](C)NP(=O)(CO[C@H](C)Cn1cnc2c(N)ncnc21)OCc1ccccc1` (some centres unmarked) [Compound 3], the selectivity ratio at 3 h in series [5] (male, ICR) worked out at 3.61. Also, the concentration at 3 h in series [5] (male, ICR, Cliver tissue) worked out at 375 nM; in series [5] (male, ICR, Cplasma) it was 104 nM.

Regarding `C[C@H](Cn1cnc2c(N)ncnc21)OC[P@](=O)(NCC(=O)OCc1ccccc1)OCc1ccccc1` (single isomer, unassigned) [Compound 5a], the 50% effective concentration (EC50) in series [3] (setting [10]) was 214 nM; in series [3] (setting [9]), 200 to 1000 nM. The CC50 in series [1] (setting [8]) is greater than 100000 nM.

For the compound `COc1ccc2[nH]c([S+]([O-])Cc3ncc(C)c(OC)c3C)nc2c1` (centres unmarked) [Omeprazole], the “% 0 min (residue percentage)” value in series [7] (0 min) was 100%. Also, in series [7] (60 min), the “% 60 min (residue percentage)” value is 24.34%. Also, the “% 120 min (residue percentage)” value in series [7] (120 min) was 9.41%. In addition, the “% 360 min (residue percentage)” value in series [7] (360 min) is 1.58%. In series [7] (1440 min), the “% 1440 min (residue percentage)” value is 0.31%.

Consider `CCOc1ccc2ccc(=O)oc2c1` [7-Ethoxycumarin], for which, in series [6] (human liver S9, 1 μM), the “CLlint(s9)” value amounted to 8.4 µL/min/mg, the half-life at 1 μM came to 82.2 min and the “Remaining (T = 60 min)” value is on record as 60%. The “CLlint(s9)” value in series [6] (human liver S9, 1 μM, scaled per kg) came out at 1.78 mL/h/kg.

Regarding `CC(C)OC(=O)CN[P@](=O)(CO[C@H](C)Cn1cnc2c(N)ncnc21)OCc1ccccc1` (single isomer, unassigned) [Compound 1b], the concentration giving a half-maximal response (EC50) in series [3] (setting [10]) is 290 nM; in series [3] (setting [9]) it was 200 to 1000 nM. Besides, the half-maximal cytotoxic concentration (CC50) in series [1] (setting [8]) is greater than 100000 nM.

The values above are taken from patent US10233202B2, “Tenofovir monobenzyl ester phosphamide prodrug, preparation method and use thereof” (JIANGSU TASLY DIYI PHARMACEUTICAL CO., LTD., priority 2015, dated 2019).
